From article PMC6698794, “Catalytic Knockdown of miR-21 by Artificial Ribonuclease: Biological Performance in Tumor Model” (Frontiers in Pharmacology, 2019)

How the values were obtained:
miR-21 = miR-21 level in transfected RLS40 cells by PCR analysis; assay type: cell-based, mouse
Protocol: (§1) RLS40 ascites were taken from CBA mice intraperitoneally injected with tumor cells (2 × 10^6 in 0.2 ml buffered saline) into their abdominal cavities. RLS40 cells, isolated from ascites fluid by filtration through LSM were divided into seven portions: 1) untreated cells; 2) the cells incubated with Lipofectamine; the cells transfected with 1 µM of 3) h-ODN, 4) 2′-OMe, 5) Inh, 6) miR-21-miRNase, or 7) luc-POC each. After 4 h of transfection, cell suspensions (0.1 ml, 2 × 10^6 cells) were intramuscularly inoculated into the right lower limb of CBA mice for solid tumor development. As soon as tumors began to be palpable, the tumor volumes were measured every 2–3 days using calipers. Tumor volumes were calculated as V = (π/6 × length × width × height). Hepatic index was estimated as (liver weight/mouse weight) × 100% and as 5.0% for healthy CBA mice. Tumor doubling time (DT) was estimated as DT = (t − t0) × ln 2/(ln V − ln V0), where (t − t0) indicates the length of time between two measurements of tumor size and V0 and V denote the tumor volume at two points of the measurement ([Ozono et al., 2004]).
(§2) Supplementary Figure 3. Expression level of miR-21 and PTEN and PDCD4 protein level in RLS40 cells after transfection with 1 µM of luc-POC or miR-21-miRNase using LipofectamineTM 2000. (A) Expression level of miR-21 24 h after transfection. The expression of miRNAs was normalized to U6. […]

PDCD4 = PDCD4 protein level in transfected RLS40 cells by Western blot; assay type: cell-based, mouse; details: 1 µM, 72 h after transfection, GAPDH internal control
Protocol: as §1, §2

lymphosarcoma cells = details: ref Patutina et al., 2017a; cited from earlier work
Source text: Short functional non-coding microRNAs are implicated in many types of cancer ([Frixa et al., 2015]; [O’Bryan et al., 2017]; [Zhou et al., 2017]). Amongst many miRNAs identified as important inducers of oncogenesis, miR-21 represents an extreme oncomiR, which is strongly involved in tumor onset and progression for many types of malignancies ([Huang et al., 2013]; [Lianidou et al., 2016]; [Yu et al., 2018]). Since miR-21 is abnormally overexpressed in major types of tumors, this oncomiR is the most considered target for anti-miRNA inhibitory studies. However, depending on the origin of tissue an ...

[1] = Nuclease resistance assay in DMEM with 10% fetal bovine serum; assay type: in vitro ADME; details: 0.1 µg/µl, DMEM with 10% FBS, 37°C; 12% PAAG/8M urea gel, Stains-All
Protocol: Oligonucleotides or conjugates (0.1 µg/µl) were incubated at 37°C in Dulbecco’s Modified Eagle Medium (DMEM) (Sigma, USA) with 10% fetal bovine serum (FBS; GE Healthcare, USA). Reactions were quenched in urea (8M) and immediately frozen in liquid nitrogen, prior to analysis of thawed samples in 12% PAAG/8M urea gels, using Tris-Borate-EDTA (TBE) as running buffer, Stains-All (MP Biomedicals, USA) and photographic gel documentation (VilberLourmat, France).

| Substance | Decrease in miR-21 level (miR-21; RLS40 cells, 1 µM, 24 h after transfection, normalized to U6) [fold] | Reduction in miR-21 level (miR-21; single treatment of tumor cells prior to transplantation) [%] | Increase in PDCD4 protein level (PDCD4) [fold] | Inhibition of tumor cell proliferation (lymphosarcoma cells) [%] | Survival (intact) in serum-containing medium [1] |
| --- | --- | --- | --- | --- | --- |
| acetyl-[(LeuArg)2Gly]2-aminohexyl-AGTCTGATAAGCTACAAGTCAGCGAAAGCTGACTTG [miR-21-miRNase, peptide acetyl-[(LeuArg)2Gly]2 conjugated through aminohexyl linker to 5′-end of miR-21-targeted hairpin oligodeoxyribonucleotide] | 2 | 50 | 2.4 | 50 |  |
| h-ODN: miR-21-targeted hairpin deoxyribooligonucleotide AGTCTGATAAGCTACAAGTCAGCGAAAGCTGACTTG, unconjugated with the peptide (DNA, backbone and methylation of C not given here; hairpin at 3' end, unconjugated) |  |  |  |  | a few hours |
